Source: US20230114728A1 (Venatorx Pharmaceuticals, Inc., priority 2019, published 2023)
In brackets after ≈: the same amount, converted by molar mass.

Legend:
[1] = test system: K. pneumoniae 848844 producing SHV-11 and KPC-2; assay: Broth microdilution MIC in CAMHB; assay type: cell-based; details: Klebsiella pneumoniae, read-out: Minimum Inhibitory Concentration, K. pneumoniae 848844
Summary of the method: (§1)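 Lowest compound concentration with no visible growth after 16-20 h at 37 °C defines MIC. Plates of 2-fold serial dilutions in cation-adjusted Mueller Hinton broth received 2-8×10^5 CFU/mL of exponentially grown cells, per CLSI methods; panel spans reference, hyper-permeable and efflux-pump-deleted strains.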

E. coli D22 = assay: Broth microdilution MIC in CAMHB; assay type: cell-based; details: Escherichia coli; E. coli D22 (hyper-permeable); MHB; read-out: Minimum Inhibitory Concentration, E. coli D22
Summary of the method: as §1

E. coli ATCC 25922 = assay: Broth microdilution MIC in CAMHB; assay type: cell-based; details: Escherichia coli, ATCC25922; E. coli ATCC 25922; MHB; read-out: Minimum Inhibitory Concentration, E. coli 25922
Summary of the method: as §1

E. coli AG100A = assay: Broth microdilution MIC in CAMHB; assay type: cell-based; details: Escherichia coli, read-out: Minimum Inhibitory Concentration, E. coli AG100A
Summary of the method: as §1

P. aeruginosa ATCC 27853 = assay: Broth microdilution MIC in CAMHB; assay type: cell-based; details: Pseudomonas aeruginosa, ATCC27853; MHB; read-out: Minimum Inhibitory Concentration, P. aeruginosa ATCC 27853
Summary of the method: as §1

[2] = test system: K. pneumoniae SI-117 producing VIM-1; assay: Broth microdilution MIC in CAMHB; assay type: cell-based; details: Klebsiella pneumoniae, read-out: Minimum Inhibitory Concentration, K. pneumoniae SI-117
Summary of the method: as §1

E. coli AG100 = assay: Broth microdilution MIC in CAMHB; assay type: cell-based; details: Escherichia coli; E. coli AG100 (wild-type parent); MHB; read-out: Minimum Inhibitory Concentration, E. coli AG100
Summary of the method: as §1

E. coli K12 PBP3 = biological target: T1, E. coli K12 PBP3 (Escherichia coli, UniProt P0AD68); assay: biochemical; assay type: binding
T1 construct: made in house
T1 sequence (P0AD68 1-577): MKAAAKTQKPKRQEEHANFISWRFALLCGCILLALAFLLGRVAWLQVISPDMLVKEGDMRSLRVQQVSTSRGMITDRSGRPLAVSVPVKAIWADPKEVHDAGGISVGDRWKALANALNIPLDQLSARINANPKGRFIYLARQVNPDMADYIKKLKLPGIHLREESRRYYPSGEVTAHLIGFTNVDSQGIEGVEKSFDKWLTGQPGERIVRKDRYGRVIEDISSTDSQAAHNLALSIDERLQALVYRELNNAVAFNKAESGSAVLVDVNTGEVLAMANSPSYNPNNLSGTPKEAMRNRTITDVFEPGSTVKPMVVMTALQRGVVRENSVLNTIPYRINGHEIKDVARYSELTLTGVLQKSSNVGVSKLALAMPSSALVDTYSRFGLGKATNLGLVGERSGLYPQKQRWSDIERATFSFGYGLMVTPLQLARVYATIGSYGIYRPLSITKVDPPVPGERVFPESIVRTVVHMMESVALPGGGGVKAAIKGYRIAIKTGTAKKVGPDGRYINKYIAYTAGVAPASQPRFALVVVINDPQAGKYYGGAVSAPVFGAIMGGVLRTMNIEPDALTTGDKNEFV
Summary of the method: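 A. baumannii PBP2 (2.5 μM) and PBP3 (0.2 μM) were run in 25 mM Tris pH 8.0 buffer with Tween 20; E. coli PBP3 (1.5 μM) and N. gonorrhoeae PBP2 ([…]) in 50 mM Hepes pH 8.0 buffer.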

P. aeruginosa PBP3 = biological target: T2, P. aeruginosa PBP3 (Pseudomonas aeruginosa, UniProt G3XD46); assay: Bocillin-FL fluorescence polarization competition binding assay, P. aeruginosa PBP3; details: fluorescence polarization competition binding assay using Bocillin-FL
T2 construct: made in house
T2 sequence (G3XD46 whole entry): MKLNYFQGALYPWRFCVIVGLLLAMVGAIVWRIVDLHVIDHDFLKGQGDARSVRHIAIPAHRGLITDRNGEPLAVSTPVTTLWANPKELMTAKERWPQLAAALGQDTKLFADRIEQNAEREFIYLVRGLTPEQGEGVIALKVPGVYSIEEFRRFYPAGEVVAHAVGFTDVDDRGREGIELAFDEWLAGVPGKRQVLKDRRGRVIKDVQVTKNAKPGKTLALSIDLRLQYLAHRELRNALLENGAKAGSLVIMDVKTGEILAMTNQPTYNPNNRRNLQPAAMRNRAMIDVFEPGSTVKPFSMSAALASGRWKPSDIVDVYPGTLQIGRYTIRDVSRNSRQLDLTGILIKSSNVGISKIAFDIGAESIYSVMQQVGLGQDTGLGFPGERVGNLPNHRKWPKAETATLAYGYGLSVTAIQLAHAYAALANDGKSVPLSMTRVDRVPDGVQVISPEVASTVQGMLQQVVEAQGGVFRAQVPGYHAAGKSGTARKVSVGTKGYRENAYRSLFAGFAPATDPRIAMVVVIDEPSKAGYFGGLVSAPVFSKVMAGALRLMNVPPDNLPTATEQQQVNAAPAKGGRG
Summary of the method: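 Inhibitor competition with Bocillin-FL for P. aeruginosa PBP3 was followed by fluorescence polarization on a Cytation3 (BioTek) reader, using g-factor 0.96, 490 nm excitation and 520 nm emission. The enzyme was at 0.75 μM and the probe at 0.1 μM in Hepes/NaCl/glycerol buffer, 80 μl per well. FP was recorded immediately after probe addition for up to 60 minutes. Potency was expressed as EC50, the concentration that reduces bound probe by 50%.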

Structure (SMILES)	MIC [1] [µg/mL]	MIC (E. coli D22) [µg/mL]	MIC (E. coli ATCC 25922) [µg/mL]	MIC (E. coli AG100A) [µg/mL]	MIC (P. aeruginosa ATCC 27853) [µg/mL]	MIC [2] [µg/mL]	MIC (E. coli AG100) [µg/mL]	EC50 (E. coli K12 PBP3) [µM]	P. aeruginosa PBP3 Potency (P. aeruginosa PBP3)
NCCCN1CCN(C(=O)NC(C(=O)N[C@H]2Cc3cccc(C(=O)O)c3OB2O)c2c(F)cc(O)cc2F)C(=O)C1=O (stereo partly drawn) [Example 183, (3R)-3-(2-(4-(3-aminopropyl)-2,3-dioxopiperazine-1-carboxamido)-2-(2,6-difluoro-4-hydroxyphenyl)acetamido)-2-hydroxy-3,4-dihydro-2H-benzo[e][1,2]oxaborinine-8-carboxylic acid]	32 to 64 (≈ 54.3 to 109 µM)	2 to 4 (≈ 3.39 to 6.79 µM)	8 to 16 (≈ 13.6 to 27.2 µM)	2 to 4 (≈ 3.39 to 6.79 µM)	> 128	32 to 64 (≈ 54.3 to 109 µM)	8 to 16 (≈ 13.6 to 27.2 µM)	< 30	D (D represents a potency <10 μM)
CCN1CCN(C(=O)NC(C(=O)N[C@H]2Cc3cccc(C(=O)O)c3OB2O)c2cc([N+](=O)[O-])c(O)cc2F)C(=O)C1=O (stereo partly drawn) [Example 184, (3R)-3-(2-(4-ethyl-2,3-dioxopiperazine-1-carboxamido)-2-(2-fluoro-4-hydroxy-5-nitrophenyl)acetamido)-2-hydroxy-3,4-dihydro-2H-benzo[e][1,2]oxaborinine-8-carboxylic acid]	> 128	2 to 4 (≈ 3.41 to 6.81 µM)	32 to 64 (≈ 54.5 to 109 µM)	2 to 4 (≈ 3.41 to 6.81 µM)	> 128	> 128	32 to 64 (≈ 54.5 to 109 µM)	< 30	D (D represents a potency <10 μM)
CCN1CCN(C(=O)NC(C(=O)N[C@H]2Cc3cccc(C(=O)O)c3OB2O)c2ccc(O)c(Cl)c2F)C(=O)C1=O (stereo partly drawn) [Example 185, (3R)-3-(2-(3-chloro-2-fluoro-4-hydroxyphenyl)-2-(4-ethyl-2,3-dioxopiperazine-1-carboxamido)acetamido)-2-hydroxy-3,4-dihydro-2H-benzo[e][1,2]oxaborinine-8-carboxylic acid]	> 128	2 to 4 (≈ 3.47 to 6.94 µM)	32 to 64 (≈ 55.5 to 111 µM)	2 to 4 (≈ 3.47 to 6.94 µM)	> 128	32 to 64 (≈ 55.5 to 111 µM)	32 to 64 (≈ 55.5 to 111 µM)	< 30	D (D represents a potency <10 μM)
CCN1CCN(C(=O)NC(C(=O)N[C@H]2Cc3cccc(C(=O)O)c3OB2O)c2c(F)cc(NC(C)=O)cc2F)C(=O)C1=O (stereo partly drawn) [Example 188, (3R)-3-(2-(4-acetamido-2,6-difluorophenyl)-2-(4-ethyl-2,3-dioxopiperazine-1-carboxamido)acetamido)-2-hydroxy-3,4-dihydro-2H-benzo[e][1,2]oxaborinine-8-carboxylic acid]	> 128	2 to 4 (≈ 3.33 to 6.65 µM)	32 to 64 (≈ 53.2 to 106 µM)	2 to 4 (≈ 3.33 to 6.65 µM)	> 128	> 128	32 to 64 (≈ 53.2 to 106 µM)	< 30	D (D represents a potency <10 μM)
CCN1CCN(C(=O)NC(C(=O)N[C@H]2Cc3cccc(C(=O)O)c3OB2O)c2cc(C#N)c(OC)cc2F)C(=O)C1=O (stereo partly drawn) [Example 192, (3R)-3-(2-(5-cyano-2-fluoro-4-methoxyphenyl)-2-(4-ethyl-2,3-dioxopiperazine-1-carboxamido)acetamido)-2-hydroxy-3,4-dihydro-2H-benzo[e][1,2]oxaborinine-8-carboxylic acid]	> 128	32 to 64 (≈ 55 to 110 µM)	> 128	32 to 64 (≈ 55 to 110 µM)	> 128	> 128	> 128	30 to 500	D (D represents a potency <10 μM)
O=C(O)c1cccc2c1OB(O)[C@@H](NC(=O)C(NC(=O)N1CCN(CC3CNC3)C(=O)C1=O)c1c(F)cc(O)cc1F)C2 (stereo partly drawn) [Example 193, (3R)-3-(2-(4-(azetidin-3-ylmethyl)-2,3-dioxopiperazine-1-carboxamido)-2-(2,6-difluoro-4-hydroxyphenyl)acetamido)-2-hydroxy-3,4-dihydro-2H-benzo[e][1,2]oxaborinine-8-carboxylic acid]	32 to 64 (≈ 53.2 to 106 µM)	2 to 4 (≈ 3.33 to 6.65 µM)	8 to 16 (≈ 13.3 to 26.6 µM)	0.5 to 1 (≈ 0.831 to 1.66 µM)	> 128	32 to 64 (≈ 53.2 to 106 µM)	8 to 16 (≈ 13.3 to 26.6 µM)	< 30	D (D represents a potency <10 μM)
CCN1CCN(C(=O)NC(C(=O)N[C@H]2Cc3cccc(C(=O)O)c3OB2O)c2ccc(C(=O)O)c(O)c2)C(=O)C1=O (stereo partly drawn) [Example 196, (3R)-3-(2-(4-carboxy-3-hydroxyphenyl)-2-(4-ethyl-2,3-dioxopiperazine-1-carboxamido)acetamido)-2-hydroxy-3,4-dihydro-2H-benzo[e][1,2]oxaborinine-8-carboxylic acid]	32 to 64 (≈ 56.3 to 113 µM)	0.5 to 1 (≈ 0.88 to 1.76 µM)	32 to 64 (≈ 56.3 to 113 µM)	2 to 4 (≈ 3.52 to 7.04 µM)	32 to 64 (≈ 56.3 to 113 µM)	32 to 64 (≈ 56.3 to 113 µM)	32 to 64 (≈ 56.3 to 113 µM)	< 30	D (D represents a potency <10 μM)
CCN1CCN(C(=O)NC(C(=O)N[C@H]2Cc3cccc(C(=O)O)c3OB2O)c2cc(NS(N)(=O)=O)ccc2F)C(=O)C1=O (stereo partly drawn) [Example 197, (3R)-3-(2-(4-ethyl-2,3-dioxopiperazine-1-carboxamido)-2-(2-fluoro-5-(sulfamoylamino)phenyl)acetamido)-2-hydroxy-3,4-dihydro-2H-benzo[e][1,2]oxaborinine-8-carboxylic acid]	> 128	0.5 to 1 (≈ 0.806 to 1.61 µM)	8 to 16 (≈ 12.9 to 25.8 µM)	0.5 to 1 (≈ 0.806 to 1.61 µM)	> 128	32 to 64 (≈ 51.6 to 103 µM)	8 to 16 (≈ 12.9 to 25.8 µM)	< 30	D (D represents a potency <10 μM)
NS(=O)(=O)Nc1ccc(F)c(C(NC(=O)N2CCN(CCF)C(=O)C2=O)C(=O)N[C@H]2Cc3cccc(C(=O)O)c3OB2O)c1 (stereo partly drawn) [Example 198, (3R)-3-(2-(2-fluoro-5-(sulfamoylamino)phenyl)-2-(4-(2-fluoroethyl)-2,3-dioxopiperazine-1-carboxamido)acetamido)-2-hydroxy-3,4-dihydro-2H-benzo[e][1,2]oxaborinine-8-carboxylic acid]	> 128	0.5 to 1 (≈ 0.783 to 1.57 µM)	8 to 16 (≈ 12.5 to 25.1 µM)	0.5 to 1 (≈ 0.783 to 1.57 µM)	> 128	32 to 64 (≈ 50.1 to 100 µM)	8 to 16 (≈ 12.5 to 25.1 µM)	< 30	D (D represents a potency <10 μM)
CCN1CCN(C(=O)NC(C(=O)N[C@H]2Cc3cccc(C(=O)O)c3OB2O)c2ccc(C(=O)O)c(Cl)c2Cl)C(=O)C1=O (stereo partly drawn) [Example 201, (3R)-3-(2-(4-carboxy-2,3-dichlorophenyl)-2-(4-ethyl-2,3-dioxopiperazine-1-carboxamido)acetamido)-2-hydroxy-3,4-dihydro-2H-benzo[e][1,2]oxaborinine-8-carboxylic acid]	> 128	2 to 4 (≈ 3.22 to 6.44 µM)	> 128	32 to 64 (≈ 51.5 to 103 µM)	> 128	> 128	> 128	< 30	D (D represents a potency <10 μM)
